Three compounds from article PMC10444810, “Induction of open-form bile canaliculus formation by hepatocytes for evaluation of biliary drug excretion” (Communications Biology, 2023) can be followed below.

Structures are written as SMILES. “And” between values parts separate entries of the source, which are not always exact repeats. Identical values can stand only once.

Format in all cases: in vitro ADME
Common to all, as to details: for Enzyme activity, Mean: mean of Well-1 to Well-4

For one data set, the target named is T1, CYP2D6 (Homo sapiens, UniProt P10635).
T1 construct: host or cells: PXB-cells (icHep: JFC, HUM181001B; sandwich culture: JFC)
T1 sequence (P10635 whole entry): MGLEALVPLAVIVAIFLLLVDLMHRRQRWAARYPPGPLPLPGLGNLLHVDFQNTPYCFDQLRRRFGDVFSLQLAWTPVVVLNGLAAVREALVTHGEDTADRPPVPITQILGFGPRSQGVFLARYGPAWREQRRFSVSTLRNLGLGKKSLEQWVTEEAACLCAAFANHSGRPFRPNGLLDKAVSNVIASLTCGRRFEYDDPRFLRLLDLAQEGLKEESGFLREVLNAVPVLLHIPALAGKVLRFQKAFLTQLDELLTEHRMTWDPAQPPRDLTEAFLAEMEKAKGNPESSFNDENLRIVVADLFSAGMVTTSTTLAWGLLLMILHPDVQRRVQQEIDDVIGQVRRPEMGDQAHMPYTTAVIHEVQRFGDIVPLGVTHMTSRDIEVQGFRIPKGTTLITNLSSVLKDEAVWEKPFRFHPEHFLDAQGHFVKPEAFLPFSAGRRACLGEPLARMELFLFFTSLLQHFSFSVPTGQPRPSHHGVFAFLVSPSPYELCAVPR
Put plainly: Metabolic assay, cocktail substrate method (bufuralol to 1’-hydroxybufuralol). The method, then:
(§1) The metabolic activity of icHep and sandwich-cultured PXB-cells was measured using the cocktail substrate method of drug-metabolizing enzymes. The components of the cocktail are summarized in Supplementary Table 1. Assays were initiated by treating cells with TB containing cocktail substrates. Time point of each substrate was set when a linear increase in its metabolite production was observed. Concentrations of metabolites produced in the medium were measured by liquid chromatography-mass spectrometry (LC-MS/MS).

Another data set concerns the target T2, CYP3A4 (Homo sapiens, UniProt P08684).
T2 construct: host or cells: PXB-cells (icHep: JFC, HUM181001B; sandwich culture: JFC)
Kind of data set: Metabolic assay, cocktail substrate method (midazolam to 1’-hydroxymidazolam). The method, then: as §1

In the next data set the target is T3, CYP2E1 (Homo sapiens, UniProt P05181).
T3 construct: host or cells: PXB-cells (icHep: JFC, HUM181001B; sandwich culture: JFC)
T3 sequence (P05181 whole entry): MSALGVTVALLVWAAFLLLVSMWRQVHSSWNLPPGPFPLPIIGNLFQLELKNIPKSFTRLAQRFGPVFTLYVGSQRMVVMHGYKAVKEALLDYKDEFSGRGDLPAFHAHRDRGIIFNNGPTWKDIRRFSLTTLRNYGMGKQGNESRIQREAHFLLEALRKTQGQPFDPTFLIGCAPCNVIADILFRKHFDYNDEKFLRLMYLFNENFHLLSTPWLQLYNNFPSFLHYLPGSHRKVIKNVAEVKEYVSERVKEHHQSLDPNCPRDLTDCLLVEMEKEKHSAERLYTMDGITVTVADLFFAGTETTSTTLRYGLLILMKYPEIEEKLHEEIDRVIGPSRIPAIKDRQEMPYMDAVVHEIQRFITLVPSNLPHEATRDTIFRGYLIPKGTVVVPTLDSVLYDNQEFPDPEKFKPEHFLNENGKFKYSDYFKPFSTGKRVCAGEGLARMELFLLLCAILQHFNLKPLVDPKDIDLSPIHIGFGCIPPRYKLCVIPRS
Kind of data set: Metabolic assay, cocktail substrate method (chlorzoxazone to 6’-hydroxychlorzoxazone). How it is done:
as §1

Where [1] appears, read: PXB-cells (JFC), incubation time 15 min, single wells.
The mark [2] stands for this setting: PXB-cells (JFC), incubation time 30 min, single wells.
[3] abbreviates: PXB-cells (JFC), incubation time 45 min, single wells.
Where [4] appears, read: PXB-cells (JFC), incubation time 60 min, single wells.
[5] abbreviates: PXB-cells (JFC), incubation time 90 min, single wells.
[6] abbreviates: PXB-cells (JFC), rate per single well.
[7] abbreviates: icHep (HUM18100B), incubation time 15 min, single wells.
[8] abbreviates: icHep (HUM18100B), incubation time 30 min, single wells.
[9] abbreviates: icHep (HUM18100B), incubation time 45 min, single wells.
The mark [10] stands for this setting: icHep (HUM18100B), incubation time 60 min, single wells.
[11] abbreviates: icHep (HUM18100B), incubation time 90 min, single wells.
Setting [12] is: icHep (HUM18100B), rate per single well.
[13] abbreviates: icHep (JFC), incubation time 15 min, single wells.
The mark [14] stands for this setting: icHep (JFC), incubation time 30 min, single wells.
[15] abbreviates: icHep (JFC), incubation time 45 min, single wells.
[16] abbreviates: icHep (JFC), incubation time 60 min, single wells.
Where [17] appears, read: icHep (JFC), incubation time 90 min, single wells.
The mark [18] stands for this setting: icHep (JFC), rate per single well.

T2 sequence (P08684 whole entry): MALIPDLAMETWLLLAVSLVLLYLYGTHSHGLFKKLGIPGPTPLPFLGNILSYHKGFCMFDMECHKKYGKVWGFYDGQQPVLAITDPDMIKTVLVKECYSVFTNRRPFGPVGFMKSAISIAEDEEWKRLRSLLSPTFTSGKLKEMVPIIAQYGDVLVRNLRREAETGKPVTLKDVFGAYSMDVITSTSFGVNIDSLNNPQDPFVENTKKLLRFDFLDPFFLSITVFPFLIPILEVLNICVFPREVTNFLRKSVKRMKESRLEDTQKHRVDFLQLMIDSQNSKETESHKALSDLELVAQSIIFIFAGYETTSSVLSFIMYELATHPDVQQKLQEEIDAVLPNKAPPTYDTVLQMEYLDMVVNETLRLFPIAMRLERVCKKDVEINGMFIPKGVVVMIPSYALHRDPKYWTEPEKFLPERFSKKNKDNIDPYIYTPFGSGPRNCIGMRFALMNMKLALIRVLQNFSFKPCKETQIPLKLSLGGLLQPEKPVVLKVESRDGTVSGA

Regarding `CC(O)c1cccc2cc(C(O)CNC(C)(C)C)oc12` (centres unmarked) [1'-hydroxybufuralol], the Enzyme activity at CYP2D6 (setting [1]) was 16.9358 pmol/106 cells and 20.2476 pmol/106 cells and 18.9803 pmol/106 cells and 17.4477 pmol/106 cells; at CYP2D6 (setting [2]) it was 29.3048 pmol/106 cells and 32.2567 pmol/106 cells and 32.3369 pmol/106 cells and 36.5879 pmol/106 cells; on CYP2D6 (setting [3]), 57.2694 pmol/106 cells and 67.3705 pmol/106 cells and 63.1354 pmol/106 cells and 57.1013 pmol/106 cells; at CYP2D6 (setting [4]), 88.7619 pmol/106 cells and 86.626 pmol/106 cells and 83.8364 pmol/106 cells and 89.8476 pmol/106 cells; at CYP2D6 (setting [5]), 79.3357 pmol/106 cells and 85.9811 pmol/106 cells and 83.3593 pmol/106 cells and 74.6468 pmol/106 cells; at CYP2D6 (setting [6]), 1.62 pmol/min/106 cells and 1.56 pmol/min/106 cells and 1.50 pmol/min/106 cells and 1.58 pmol/min/106 cells. The Enzyme activity on CYP2D6 (setting [7]) was 20.6578 pmol/106 cells and 24.0318 pmol/106 cells and 24.5391 pmol/106 cells and 24.1229 pmol/106 cells; on CYP2D6 (setting [8]), 38.6716 pmol/106 cells and 36.9398 pmol/106 cells and 37.9846 pmol/106 cells and 33.7885 pmol/106 cells; at CYP2D6 (setting [9]) it was 56.8381 pmol/106 cells and 54.0547 pmol/106 cells and 51.5492 pmol/106 cells and 53.9902 pmol/106 cells; on CYP2D6 (setting [10]), 80.7041 pmol/106 cells and 78.1674 pmol/106 cells and 75.41 pmol/106 cells and 73.212 pmol/106 cells; on CYP2D6 (setting [11]), 107.294 pmol/106 cells and 123.561 pmol/106 cells and 104.675 pmol/106 cells and 114.288 pmol/106 cells; at CYP2D6 (setting [12]) it was 1.40 pmol/min/106 cells and 1.37 pmol/min/106 cells and 1.25 pmol/min/106 cells and 1.31 pmol/min/106 cells. The Enzyme activity at CYP2D6 (setting [13]) is 27.4857 pmol/106 cells and 27.0951 pmol/106 cells and 24.9076 pmol/106 cells and 26.1443 pmol/106 cells; at CYP2D6 (setting [14]) it was 41.2873 pmol/106 cells and 33.111 pmol/106 cells and 48.4523 pmol/106 cells and 44.4518 pmol/106 cells; at CYP2D6 (setting [15]), 63.4972 pmol/106 cells and 59.7018 pmol/106 cells and 65.0037 pmol/106 cells and 67.8302 pmol/106 cells; at CYP2D6 (setting [16]), 89.1933 pmol/106 cells and 91.8156 pmol/106 cells and 102.797 pmol/106 cells and 101.548 pmol/106 cells; on CYP2D6 (setting [17]), 106.28 pmol/106 cells and 107.567 pmol/106 cells and 125.014 pmol/106 cells and 113.156 pmol/106 cells; on CYP2D6 (setting [18]) it was 1.43 pmol/min/106 cells and 1.69 pmol/min/106 cells and 1.64 pmol/min/106 cells and 1.42 pmol/min/106 cells. Moreover, the “Enzyme activity, Mean” value on CYP2D6 (PXB-cells (JFC)) worked out at 1.57 pmol/min/106 cells; on CYP2D6 (icHep (HUM18100B)), 1.33 pmol/min/106 cells; on CYP2D6 (icHep (JFC)) it was 1.55 pmol/min/106 cells.
With `OCc1ncc2n1-c1ccc(Cl)cc1C(c1ccccc1F)=NC2` [1'-hydroxymidazolam], the Enzyme activity on CYP3A4 (setting [1]) was 85.9964 pmol/106 cells and 107.28 pmol/106 cells and 107.269 pmol/106 cells and 94.4354 pmol/106 cells; at CYP3A4 (setting [2]) it was 157.896 pmol/106 cells and 182.793 pmol/106 cells and 221.326 pmol/106 cells and 195.956 pmol/106 cells; on CYP3A4 (setting [3]), 229.127 pmol/106 cells and 265.395 pmol/106 cells and 205.135 pmol/106 cells and 181.378 pmol/106 cells; at CYP3A4 (setting [4]), 216.024 pmol/106 cells and 232.078 pmol/106 cells and 207.606 pmol/106 cells and 244.165 pmol/106 cells; at CYP3A4 (setting [5]), 251.177 pmol/106 cells and 288.431 pmol/106 cells and 316.537 pmol/106 cells and 214.43 pmol/106 cells; on CYP3A4 (setting [6]), 4.79 pmol/min/106 cells and 5.03 pmol/min/106 cells and 7.60 pmol/min/106 cells and 6.77 pmol/min/106 cells. Moreover, the Enzyme activity at CYP3A4 (setting [7]) was 124.221 pmol/106 cells and 126.279 pmol/106 cells and 141.412 pmol/106 cells and 115.91 pmol/106 cells; at CYP3A4 (setting [8]) it was 259.113 pmol/106 cells and 258.447 pmol/106 cells and 251.469 pmol/106 cells and 277.435 pmol/106 cells; on CYP3A4 (setting [9]), 382.492 pmol/106 cells and 333.832 pmol/106 cells and 305.042 pmol/106 cells and 320.283 pmol/106 cells; at CYP3A4 (setting [10]) it was 439.172 pmol/106 cells and 380.966 pmol/106 cells and 417.242 pmol/106 cells and 349.083 pmol/106 cells; at CYP3A4 (setting [11]) it was 536.397 pmol/106 cells and 514.134 pmol/106 cells and 491.294 pmol/106 cells and 551.51 pmol/106 cells; on CYP3A4 (setting [12]), 8.99 pmol/min/106 cells and 8.81 pmol/min/106 cells and 7.34 pmol/min/106 cells and 10.8 pmol/min/106 cells. Also, the Enzyme activity on CYP3A4 (setting [13]) is 99.4818 pmol/106 cells and 103.678 pmol/106 cells and 120.741 pmol/106 cells and 92.847 pmol/106 cells; on CYP3A4 (setting [14]), 252.368 pmol/106 cells and 242.904 pmol/106 cells and 185.11 pmol/106 cells and 190.476 pmol/106 cells; on CYP3A4 (setting [15]), 266.706 pmol/106 cells and 248.159 pmol/106 cells and 239.281 pmol/106 cells and 225.504 pmol/106 cells; at CYP3A4 (setting [16]), 273.171 pmol/106 cells and 272.05 pmol/106 cells and 245.256 pmol/106 cells and 275.122 pmol/106 cells; on CYP3A4 (setting [17]) it was 330.978 pmol/106 cells and 294.591 pmol/106 cells and 323.573 pmol/106 cells and 259.768 pmol/106 cells. Also, the “Enzyme activity, Mean” value is 6.05 pmol/min/106 cells at CYP3A4 (PXB-cells (JFC)), 8.98 pmol/min/106 cells on CYP3A4 (icHep (HUM18100B)) and 7.57 pmol/min/106 cells at CYP3A4 (icHep (JFC)).
Regarding `O=c1[nH]c2cc(Cl)c(O)cc2o1` [6'-hydroxychlorzoxazone], the Enzyme activity was 2.306 pmol/106 cells and 2.95 pmol/106 cells and 3.355 pmol/106 cells and 2.895 pmol/106 cells on CYP2E1 (setting [1]); 5.44 pmol/106 cells and 5.421 pmol/106 cells and 6.357 pmol/106 cells and 6.2485 pmol/106 cells on CYP2E1 (setting [2]); 6.903 pmol/106 cells and 8.029 pmol/106 cells and 8.51 pmol/106 cells and 7.254 pmol/106 cells on CYP2E1 (setting [3]); 7.3761 pmol/106 cells and 7.959 pmol/106 cells and 8.112 pmol/106 cells and 7.339 pmol/106 cells on CYP2E1 (setting [4]); 7.477 pmol/106 cells and 10.4196 pmol/106 cells and 8.199 pmol/106 cells and 8.482 pmol/106 cells on CYP2E1 (setting [5]); 0.153 pmol/min/106 cells and 0.169 pmol/min/106 cells and 0.172 pmol/min/106 cells and 0.145 pmol/min/106 cells at CYP2E1 (setting [6]). For the same compound, the Enzyme activity on CYP2E1 (setting [7]) was 10.0765 pmol/106 cells and 9.906 pmol/106 cells and 11.3983 pmol/106 cells and 9.755 pmol/106 cells; at CYP2E1 (setting [8]), 22.452 pmol/106 cells and 22.028 pmol/106 cells and 22.1618 pmol/106 cells and 20.005 pmol/106 cells; on CYP2E1 (setting [9]), 33.1164 pmol/106 cells and 28.7079 pmol/106 cells and 30.6951 pmol/106 cells and 27.4528 pmol/106 cells; on CYP2E1 (setting [10]), 42.0307 pmol/106 cells and 37.5801 pmol/106 cells and 42.224 pmol/106 cells and 33.7793 pmol/106 cells; on CYP2E1 (setting [11]), 67.3851 pmol/106 cells and 64.4144 pmol/106 cells and 55.8641 pmol/106 cells and 56.1231 pmol/106 cells; at CYP2E1 (setting [12]), 0.710 pmol/min/106 cells and 0.598 pmol/min/106 cells and 0.673 pmol/min/106 cells and 0.530 pmol/min/106 cells. Besides, the Enzyme activity was 2.771 pmol/106 cells and 3.158 pmol/106 cells and 3.038 pmol/106 cells and 3.018 pmol/106 cells at CYP2E1 (setting [13]); 4.046 pmol/106 cells and 4.392 pmol/106 cells and 5.788 pmol/106 cells and 6.302 pmol/106 cells on CYP2E1 (setting [14]); 8.107 pmol/106 cells and 7.33 pmol/106 cells and 8.049 pmol/106 cells and 8.219 pmol/106 cells at CYP2E1 (setting [15]); 8.619 pmol/106 cells and 8.336 pmol/106 cells and 6.8 pmol/106 cells and 10.6833 pmol/106 cells on CYP2E1 (setting [16]); 10.5593 pmol/106 cells and 9.487 pmol/106 cells and 8.477 pmol/106 cells and 10.9673 pmol/106 cells on CYP2E1 (setting [17]); 0.178 pmol/min/106 cells and 0.139 pmol/min/106 cells and 0.167 pmol/min/106 cells and 0.173 pmol/min/106 cells at CYP2E1 (setting [18]). Further, the “Enzyme activity, Mean” value on CYP2E1 (PXB-cells (JFC)) is on record as 0.160 pmol/min/106 cells; at CYP2E1 (icHep (HUM18100B)), 0.628 pmol/min/106 cells; at CYP2E1 (icHep (JFC)), 0.164 pmol/min/106 cells.
